The assay deals with E.coli strain DH5αZ1 transformed with input pBT plasmid and amplifier plasmid pAMP-1. Description: Output EGFP fluorescence of genetic circuit amplifier as a function of input IPTG concentration. The assay is classed as cell-based. The conditions noted are these: 3 hours growth, corrected for cell density and background fluorescence. From the text:
A second bacterial plasmid, pBT (Stratagene, CA), was selected to produce the input. It releases monomer into the cellular environment, making CI available for the engineered circuit to use. It is a simple plasmid that controls transcription of cI with the PlacUV promoter. […] The pBT vector has an origin of replication derived from p15A, making it compatible with the circuit plasmid which has a different ColE1 origin of replication. Together, the plasmids constitute a cis-trans network, since the product of one plasmid (pBT) affects the outcome of gene expression on the second plasmid (pAMP-1).
The input pBT plasmid and the amplifier plasmid pAMP-1 gene were transformed into chemically competent E.coli strain DH5αZ1. This strain was selected because it produces LacI in abundance so as to permit effective use of pBT. Transformed cells were grown overnight at 37° C. in LB broth. Chloramphenicol was added at a concentration of 50 μg/mL and ampicillin was added at a concentration of 100 μg/mL.
The overnight culture was diluted 1:50 into fresh LB medium containing IPTG at the following concentrations: 0-20-200-2000 μM. These cells were allowed to grow for another 3 hours. The cells were then spun down and re-suspended in PBS. Fluorescence was then measured on a BMG Optima microplate fluorometer equipped with filters for GFP. Absorbance at 600 nm was also measured. Fluorescence was the corrected for cell density and background fluorescence. The result, presented in Table 1, indicates an output that decreases with increasing input. Observed non-linearity is likely due to low gain of chosen gain element.

For `CC(C)S[C@@H]1O[C@H](CO)[C@H](O)[C@H](O)[C@H]1O` [IPTG, isopropyl-β-D-thiogalactopyranoside], the EGFP output fluorescence came out at 66263 arbitrary units (IPTG 20 uM), 58338 arbitrary units (IPTG 200 uM) and 44137 arbitrary units (IPTG 2000 uM).

The values above are taken from patent publication US20050112615A1, “Genetic circuit inverting amplifier” (priority 2003, published 2005).
